Test results published in patent US20210069199A1, “METHODS OF TREATING TRANSPLANT REJECTION” (priority 2015, published 2021).

Tests used:
[1] = target: CSF1R (Homo sapiens, UniProt P07333); conditions: cited from earlier work
[2] = test system: GVHD in recipient mice; experiment: murine model of MHC-disparate allogeneic hematopoietic cell transplantation (GVHD); type: in vivo; conditions: 100 mg/kg twice a day by oral gavage for 4 weeks beginning on the day of MHC-disparate allo-HCT
[3] = test system: IL-2 induced STATS phosphorylation; experiment: IL-2 induced STAT5 phosphorylation in human CD4+ T-cells; type: cell-based; conditions: 2.5 μM
Source text: (§1) This offers a platform to reduce Th17 development, while promoting Treg populations.

[4] = test system: human T-cells; experiment: allogeneic mixed leukocyte reaction, T-cell proliferation; type: cell-based; conditions: 2.5 μM, after 5 days of culture, DC:T-cell ratio 1:30; control 100%; P<0.0001
Source text: as §1

[5] = test system: iTregs; experiment: suppressive potency of iTregs generated with allogeneic DCs in the presence of drug; type: cell-based, human; conditions: iTregs generated with allogeneic DCs for 5 days with drug, then cultured with self T-cell responders and fresh DCs without drug
Source text: as §1

[6] = target: IRAK1 (Homo sapiens, UniProt P51617); conditions: cited from earlier work
Chain of IRAK1 (P51617 whole entry, species assumed): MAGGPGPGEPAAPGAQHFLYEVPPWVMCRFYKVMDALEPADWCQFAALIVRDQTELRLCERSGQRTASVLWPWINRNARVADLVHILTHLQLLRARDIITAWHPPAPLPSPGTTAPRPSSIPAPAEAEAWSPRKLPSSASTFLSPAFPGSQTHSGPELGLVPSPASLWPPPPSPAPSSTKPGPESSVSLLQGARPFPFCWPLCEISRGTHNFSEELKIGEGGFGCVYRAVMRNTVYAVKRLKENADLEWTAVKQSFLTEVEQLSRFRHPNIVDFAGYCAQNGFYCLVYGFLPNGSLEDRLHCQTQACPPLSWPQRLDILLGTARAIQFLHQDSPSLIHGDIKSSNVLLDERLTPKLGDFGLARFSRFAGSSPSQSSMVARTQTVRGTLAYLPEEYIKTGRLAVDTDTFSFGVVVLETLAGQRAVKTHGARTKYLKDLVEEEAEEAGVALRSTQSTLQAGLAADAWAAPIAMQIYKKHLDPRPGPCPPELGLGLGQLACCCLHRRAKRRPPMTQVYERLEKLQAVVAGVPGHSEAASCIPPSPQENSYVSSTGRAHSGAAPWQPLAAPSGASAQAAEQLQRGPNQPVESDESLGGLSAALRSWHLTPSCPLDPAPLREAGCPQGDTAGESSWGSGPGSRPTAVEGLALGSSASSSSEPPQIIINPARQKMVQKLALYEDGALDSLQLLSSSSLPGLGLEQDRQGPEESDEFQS

[7] = target: T1, JAK3 (Homo sapiens, UniProt P52333); conditions: cited from earlier work
T1 sequence (P52333 1-1124): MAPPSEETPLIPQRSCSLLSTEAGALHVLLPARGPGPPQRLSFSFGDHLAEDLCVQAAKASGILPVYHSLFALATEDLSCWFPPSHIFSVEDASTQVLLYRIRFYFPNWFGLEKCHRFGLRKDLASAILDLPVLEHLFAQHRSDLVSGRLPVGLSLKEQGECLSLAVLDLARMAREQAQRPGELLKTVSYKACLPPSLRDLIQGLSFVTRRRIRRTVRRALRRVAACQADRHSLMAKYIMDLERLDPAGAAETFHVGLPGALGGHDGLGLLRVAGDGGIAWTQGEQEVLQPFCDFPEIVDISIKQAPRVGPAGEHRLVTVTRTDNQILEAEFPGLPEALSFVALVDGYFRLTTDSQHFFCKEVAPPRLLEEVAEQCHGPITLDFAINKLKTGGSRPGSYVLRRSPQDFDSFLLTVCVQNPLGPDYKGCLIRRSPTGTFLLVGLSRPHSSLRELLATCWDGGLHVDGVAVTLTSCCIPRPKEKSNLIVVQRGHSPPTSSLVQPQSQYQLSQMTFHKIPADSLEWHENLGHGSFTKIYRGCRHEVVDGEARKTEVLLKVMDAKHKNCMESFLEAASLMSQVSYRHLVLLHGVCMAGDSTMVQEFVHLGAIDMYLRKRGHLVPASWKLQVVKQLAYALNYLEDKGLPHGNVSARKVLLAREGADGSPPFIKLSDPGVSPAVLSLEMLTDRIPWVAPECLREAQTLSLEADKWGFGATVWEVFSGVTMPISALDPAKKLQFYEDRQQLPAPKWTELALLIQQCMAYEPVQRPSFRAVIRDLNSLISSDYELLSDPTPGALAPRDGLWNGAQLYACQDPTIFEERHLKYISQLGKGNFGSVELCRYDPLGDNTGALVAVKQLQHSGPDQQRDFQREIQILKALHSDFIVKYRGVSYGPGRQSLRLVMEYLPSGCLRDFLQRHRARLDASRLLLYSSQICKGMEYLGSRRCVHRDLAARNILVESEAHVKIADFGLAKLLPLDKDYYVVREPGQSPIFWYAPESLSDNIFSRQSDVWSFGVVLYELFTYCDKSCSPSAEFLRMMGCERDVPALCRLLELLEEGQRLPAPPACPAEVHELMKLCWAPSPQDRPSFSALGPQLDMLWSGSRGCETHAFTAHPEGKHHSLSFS

[8] = test system: STAT3 activity by IL-6; experiment: STAT3 activity by IL-6 in human CD4+ T-cells; type: cell-based; conditions: 2.5 μM
Source text: as §1

[9] = test system: human skin graft rejection by allogeneic human PBMC; experiment: human skin/NSG mouse xenograft model of solid organ graft rejection; type: in vivo
Source text: The inventors then evaluated whether JAK2 inhibition could prevent solid organ graft rejection, using a human skin/NSG mouse xenograft model. A 1×1 cm split-thickness human skin graft was transplanted onto the animal dorsally, followed by intraperitoneal injection of 5×10^6 allogeneic peripheral blood mononuclear cells (PBMC) 30 days after surgery.

[10] = test system: myelofibrosis patients; conditions: unlike JAK1/JAK2 inhibitors; cited from earlier work

Chain of CSF1R (P07333 20-972, species assumed): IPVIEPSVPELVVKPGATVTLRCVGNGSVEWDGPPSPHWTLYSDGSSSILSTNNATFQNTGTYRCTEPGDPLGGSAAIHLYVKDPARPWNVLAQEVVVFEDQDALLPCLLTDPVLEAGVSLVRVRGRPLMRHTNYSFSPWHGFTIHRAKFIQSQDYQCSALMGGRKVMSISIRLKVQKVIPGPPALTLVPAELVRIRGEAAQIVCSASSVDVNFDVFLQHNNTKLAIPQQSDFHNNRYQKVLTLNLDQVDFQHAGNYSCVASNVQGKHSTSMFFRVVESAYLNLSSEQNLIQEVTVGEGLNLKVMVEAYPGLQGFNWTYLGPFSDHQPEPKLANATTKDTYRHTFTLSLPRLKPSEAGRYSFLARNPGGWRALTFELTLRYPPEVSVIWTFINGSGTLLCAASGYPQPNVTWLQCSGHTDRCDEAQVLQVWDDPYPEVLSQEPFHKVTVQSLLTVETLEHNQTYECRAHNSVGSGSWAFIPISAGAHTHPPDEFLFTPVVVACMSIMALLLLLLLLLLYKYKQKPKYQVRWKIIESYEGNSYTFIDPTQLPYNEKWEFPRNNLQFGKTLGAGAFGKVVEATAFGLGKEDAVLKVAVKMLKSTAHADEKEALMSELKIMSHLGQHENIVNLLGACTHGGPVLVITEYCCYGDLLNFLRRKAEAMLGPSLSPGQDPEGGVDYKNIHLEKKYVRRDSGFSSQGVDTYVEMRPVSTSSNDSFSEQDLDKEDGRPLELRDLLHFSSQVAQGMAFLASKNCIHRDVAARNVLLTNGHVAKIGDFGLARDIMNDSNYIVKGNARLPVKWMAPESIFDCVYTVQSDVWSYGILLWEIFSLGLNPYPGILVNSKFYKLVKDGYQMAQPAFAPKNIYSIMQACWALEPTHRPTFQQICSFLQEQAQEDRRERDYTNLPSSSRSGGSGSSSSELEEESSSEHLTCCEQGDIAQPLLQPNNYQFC

## C1=C/COCc2cc(ccc2OCCN2CCCC2)Nc2nccc(n2)-c2cccc(c2)COC/1 [pacritinib, 11-(2-Pyrrolidinl-yl-ethoxy)-14,19-dioxa-5,7,26-triazatetracyclo[19.3.1.1^2,6.1^8,12] heptacosa-1(25),2(26),3,5,8,10,12(27),16,21,23-decaene]
[1]
  suppressive activity toward CSF1R: has suppressive activity toward JAK3, CSF1R
[2]
  GVHD in recipient mice: significantly reducing GVHD
[3]
  IL-2 induced STATS phosphorylation: permitting IL-2 induced STATS phosphorylation
[4]
  Mean proliferation (T-cell): 23.7%
[5]
  suppressive potency of treated iTregs versus DMSO-treated iTregs: similar
[6]
  suppressive activity toward IRAK1: has suppressive activity toward JAK3, CSF1R, and IRAK1
[7]
  suppressive activity toward JAK3: has suppressive activity toward JAK3
[8]
  STAT3 activity by IL-6: eliminated STAT3 activity by IL-6
[9]; 100 mg/kg twice a day oral gavage for 15 days from PBMC injection, vehicle 0%
  Day 60 survival (graft): 33.3%
[9]; 100 mg/kg twice a day oral gavage for 15 days from PBMC injection, vehicle 32.5 days, P=0.0011
  Median graft survival: 51 days
[9]; skin grafts at day +21, before onset of graft rejection
  lymphocytic infiltration of skin graft (H&E, CD3 IHC): reduces lymphocytic infiltration of the tissue
[10]
  myelosuppression: does not induce myelosuppression
  risk for opportunistic infections: does not induce myelosuppression or increase risk for opportunistic infections
